Experimental data taken from patent US9815835B2, “Substituted polycyclic carbamolypyridone derivative” (priority 2009, dated 2017).

Tests used:
influenza virus = assay: microbe, parasite or virus in culture; assay type: cell-based, influenza virus (MDBK or MDCK cells); conditions: unidentified influenza virus, 72 h, read-out: CPE EC50, effective concentration to achieve 50% CPE inhibition, 3 days incubation, WST-8
[1] = molecular target: cap-dependent endonuclease (RNP fraction containing PB1•PB2•PA complex) (Influenza A virus, UniProt P15659); assay: biochemical; conditions: RNP from A/WSN/33 virus, capped Cy3/BHQ2 30mer RNA substrate, 60 minutes at room temperature; read-out: CEN IC50

| Compound | EC50 (influenza virus) | IC50 [1] |
| --- | --- | --- |
| CN1CN(C2c3ccccc3CSc3cc(F)ccc32)n2ccc(=O)c(O)c2C1=O (stereo not drawn) [Example 355] | 0.075 µM | 0.04 µM |
| Cc1ccc2c(c1)C(N1CN(C(C)C)C(=O)c3c(O)c(=O)ccn31)c1ccccc1CS2 (stereo not drawn) [Example 357] | 0.386 µM | 0.138 µM |
| Cc1ccc(C)c2c1SCc1ccccc1C2N1CN(C(C)C)C(=O)c2c(O)c(=O)ccn21 (stereo not drawn) [Example 358] | 0.069 µM | 0.051 µM |
| O=C1c2c(O)c(=O)ccn2N(C2c3ccccc3CSc3ccccc32)CN1CCO (stereo not drawn) [Example 360] | 0.087 µM | 0.042 µM |
| O=C1c2c(O)c(=O)ccn2N(C2c3ccccc3CCc3ccccc32)CN1CCO [Example 361] | 0.145 µM | 0.039 µM |
| CC(CO)N1CN(C2c3ccccc3CSc3ccccc32)n2ccc(=O)c(O)c2C1=O (stereo not drawn) [Example 363] | 0.067 µM | 0.058 µM |
| O=C1c2c(O)c(=O)ccn2N(C2c3ccccc3CSc3ccccc32)CN1CC(O)CO (stereo not drawn) [Example 365] | 2.25 µM | 0.041 µM |
| O=C1c2c(O)c(=O)ccn2N(C2c3ccccc3CSc3ccccc32)CN1C(CO)CO (stereo not drawn) [Example 366] | 0.838 µM | 0.09 µM |
| CC(CO)N1CN(C(c2ccccc2)c2ccccc2)n2ccc(=O)c(O)c2C1=O (stereo not drawn) [Example 368] | 0.47 µM | 0.14 µM |
| CC(CCO)N1CN(C(c2ccccc2)c2ccccc2)n2ccc(=O)c(O)c2C1=O (stereo not drawn) [Example 369] | 0.434 µM | 0.294 µM |
| CC(C)(O)CN1CN(C2c3ccccc3CCc3ccccc32)n2ccc(=O)c(O)c2C1=O [Example 370] | 0.061 µM | 0.113 µM |
| CC(C)(O)CN1CN(C2c3ccccc3CSc3ccccc32)n2ccc(=O)c(O)c2C1=O (stereo not drawn) [Example 371] | 0.074 µM | 0.161 µM |
| O=C1c2c(O)c(=O)ccn2N(C2c3ccccc3CSc3ccccc32)CN1CC1(O)CCCCC1 (stereo not drawn) [Example 372] | 0.146 µM | 0.164 µM |
| O=C1c2c(O)c(=O)ccn2N(C2c3ccccc3CSc3ccccc32)CN1[C@H](CO)c1ccccc1 (stereo partly drawn) [Example 376] | 0.092 µM | 0.063 µM |
| CC(C)[C@@H](CO)N1CN(C2c3ccccc3CSc3ccccc32)n2ccc(=O)c(O)c2C1=O (stereo partly drawn) [Example 378] | 0.022 µM | 0.047 µM |
| CC(C)N1CN(C2c3ccccc3CCc3c(CO)cccc32)n2ccc(=O)c(O)c2C1=O (stereo not drawn) [Example 384] | 0.293 µM | 0.153 µM |
| CC(C)N1CN([C@@H]2c3ccccc3[C@@H]3[C@H](c4ccccc42)C3(F)F)n2ccc(=O)c(O)c2C1=O [Example 386] | 0.096 µM | 0.075 µM |
| CC(C)N1CN(C2c3ccccc3NC(=O)c3ccccc32)n2ccc(=O)c(O)c2C1=O (stereo not drawn) [Example 387] | 1.15 µM | 0.3 µM |
| CC(C)N1CN(C2c3ccccc3CCc3ccsc32)n2ccc(=O)c(O)c2C1=O (stereo not drawn) [Example 388] | 0.063 µM | 0.133 µM |
| CC(C)N1CN(C2c3ccccc3COc3c(Cl)cccc32)n2ccc(=O)c(O)c2C1=O (stereo not drawn) [Example 390] | 0.029 µM | 0.095 µM |
| O=C1c2c(O)c(=O)ccn2N(C2c3ccccc3COc3ccccc32)CN1C1CC1 (stereo not drawn) [Example 392] | 0.025 µM | 0.153 µM |

| Compound | EC50 (influenza virus) | IC50 [1] |
| --- | --- | --- |
| COCCN1CN(C2c3ccccc3COc3ccccc32)n2ccc(=O)c(O)c2C1=O (stereo not drawn) [Example 394] | 0.064 µM | 0.087 µM |
| CN1CN(C2c3ccccc3COc3ccccc32)n2ccc(=O)c(O)c2C1=O (stereo not drawn) [Example 395] | 0.089 µM | 0.043 µM |
| CC(C)N1CN(C2c3ccccc3COc3ccc(Cl)cc32)n2ccc(=O)c(O)c2C1=O (stereo not drawn) [Example 398] | 0.118 µM | 0.034 µM |
| CC(C)N1CN(C2c3ccccc3COc3cc(F)ccc32)n2ccc(=O)c(O)c2C1=O (stereo not drawn) [Example 399] | 0.061 µM | 0.105 µM |
| COCCN1CN(C2c3ccccc3COc3c(F)cccc32)n2ccc(=O)c(O)c2C1=O (stereo not drawn) [Example 400] | 0.079 µM | 0.067 µM |
| COCCN1CN(C2c3cc(F)ccc3COc3ccccc32)n2ccc(=O)c(O)c2C1=O (stereo not drawn) [Example 404] | 0.063 µM | 0.084 µM |
| COCCN1CN(C2c3ccccc3OCc3c(F)cccc32)n2ccc(=O)c(O)c2C1=O (stereo not drawn) [Example 405] | 0.051 µM | 0.074 µM |
| CC(C)N1CN(C2c3ccccc3OCc3c(F)cccc32)n2ccc(=O)c(O)c2C1=O (stereo not drawn) [Example 407] | 0.017 µM | 0.035 µM |
| CC(C)N1CN(C2c3cc(Cl)ccc3COc3ccccc32)n2ccc(=O)c(O)c2C1=O (stereo not drawn) [Example 408] | 0.061 µM | 0.135 µM |
| C[C@@H](N1CN(C2c3ccccc3COc3c(Cl)cccc32)n2ccc(=O)c(O)c2C1=O)C(F)(F)F (stereo partly drawn) [Example 411] | 0.014 µM | 0.046 µM |
| CC(C)c1cccc2c1OCc1ccccc1C2N1CN(C(C)C)C(=O)c2c(O)c(=O)ccn21 (stereo not drawn) [Example 412] | 0.203 µM | 0.292 µM |
| C[C@H](N1CN([C@@H]2c3ccccc3SCc3c(Cl)cccc32)n2ccc(=O)c(O)c2C1=O)C(F)(F)F [Example 419] | 0.019 µM | 0.124 µM |
| C[C@H](N1CN([C@H]2c3ccc(Cl)cc3CSc3ccccc32)n2ccc(=O)c(O)c2C1=O)C(F)(F)F [Example 420] | 0.021 µM | 0.058 µM |
| C[C@H](N1CN([C@H]2c3ccccc3CSc3c(Cl)cccc32)n2ccc(=O)c(O)c2C1=O)C(F)(F)F [Example 423] | 0.019 µM | 0.28 µM |
| C[C@@H](N1CN([C@H]2c3ccc(Br)cc3CSc3ccccc32)n2ccc(=O)c(O)c2C1=O)C(F)(F)F [Example 433] | 0.017 µM | 0.014 µM |
| C[C@@H](N1CN([C@H]2c3ccccc3SCc3c(F)cccc32)n2ccc(=O)c(O)c2C1=O)C(F)(F)F [Example 445] | 0.004 µM | 0.013 µM |
| C[C@@H](N1CN([C@H]2c3ccc(Cl)cc3CSc3ccccc32)n2ccc(=O)c(O)c2C1=O)C(F)(F)F [Example 446] | 0.011 µM | 0.007 µM |
| C[C@H](N1CN([C@H]2c3cc(F)ccc3CSc3ccccc32)n2ccc(=O)c(O)c2C1=O)C(F)(F)F [Example 447] | 0.018 µM | 0.096 µM |
| C[C@@H](N1CN([C@H]2c3ccccc3CSc3cc(Cl)ccc32)n2ccc(=O)c(O)c2C1=O)C(F)(F)F [Example 449] | 0.021 µM | 0.062 µM |
| C[C@H](N1CN([C@@H]2c3ccccc3SCc3c(F)cccc32)n2ccc(=O)c(O)c2C1=O)C(F)(F)F [Example 452] | 0.016 µM | 0.177 µM |
| C[C@H](N1CN([C@@H]2c3ccccc3SCc3cccc(F)c32)n2ccc(=O)c(O)c2C1=O)C(F)(F)F [Example 457] | 0.014 µM | 0.242 µM |

| Compound | EC50 (influenza virus) | IC50 [1] |
| --- | --- | --- |
| Cc1cccc2c1CSc1ccccc1[C@H]2N1CN([C@H](C)C(F)(F)F)C(=O)c2c(O)c(=O)ccn21 [Example 464] | 0.014 µM | 0.024 µM |
| C[C@@H](N1CN([C@@H]2c3ccccc3SCc3c(C#N)cccc32)n2ccc(=O)c(O)c2C1=O)C(F)(F)F [Example 476] | 0.014 µM | 0.031 µM |
| CN(C)CCN1CN(C2c3ccccc3CCc3ccccc32)n2ccc(=O)c(O)c2C1=O [Example 478] | 0.129 µM | 0.088 µM |
| CC(CN1CCOCC1)N1CN(C2c3ccccc3CCc3ccccc32)n2ccc(=O)c(O)c2C1=O (stereo not drawn) [Example 482] | 0.031 µM | 0.103 µM |
| CC(CN1CCN(C)CC1)N1CN(C2c3ccccc3CSc3ccccc32)n2ccc(=O)c(O)c2C1=O (stereo not drawn) [Example 485] | 0.424 µM | 0.221 µM |
| CC(CN1CCCCC1)N1CN(C2c3ccccc3CCc3ccccc32)n2ccc(=O)c(O)c2C1=O (stereo not drawn) [Example 486] | 0.072 µM | 0.14 µM |
| CC(CN1CCCCC1)N1CN(C2c3ccccc3CSc3ccccc32)n2ccc(=O)c(O)c2C1=O (stereo not drawn) [Example 487] | 0.026 µM | 0.091 µM |
| CC(CN1CCSCC1)N1CN(C2c3ccccc3CCc3ccccc32)n2ccc(=O)c(O)c2C1=O (stereo not drawn) [Example 488] | 0.027 µM | 0.151 µM |
| CC(CN1CCSCC1)N1CN(C2c3ccccc3CSc3ccccc32)n2ccc(=O)c(O)c2C1=O (stereo not drawn) [Example 489] | 0.014 µM | 0.133 µM |
| CCN1C(=O)c2c(O)c(=O)ccn2C(C(c2ccccc2)C2CCCCC2)N1CC (stereo not drawn) [Example 493] | 0.101 µM | 0.112 µM |
| COCCN1C(=O)c2c(O)c(=O)ccn2C(C(c2ccccc2)c2ccccc2)N1C (stereo not drawn) [Example 495] | 0.31 µM | 0.277 µM |
| CN1C(=O)c2c(O)c(=O)ccn2C(C(c2ccccc2)c2ccccc2)N1C (stereo not drawn) [Example 496] | 0.177 µM | 0.17 µM |
| CN1C(C(c2ccccc2)c2ccccc2)n2ccc(=O)c(O)c2C(=O)N1CCOc1ccc(F)cc1 (stereo not drawn) [Example 497] | 0.511 µM | 0.215 µM |
| CCN1C(=O)c2c(O)c(=O)ccn2C(C(c2ccccc2)c2ccccc2)N1CC (stereo not drawn) [Example 498] | 0.351 µM | 0.161 µM |
| CC(C)N1CN(C2c3ccccc3CCc3ccccc32)n2cc(CF)c(=O)c(O)c2C1=O [Example 508] | 0.056 µM | 0.036 µM |
| CC(C)N1CN(C2c3ccccc3CSc3ccccc32)n2cc(CF)c(=O)c(O)c2C1=O (stereo not drawn) [Example 509] | 0.014 µM | 0.015 µM |
| COCCC1N(C(C)C)C(=O)c2c(O)c(=O)ccn2N1C1c2ccccc2CCc2ccccc21 (stereo not drawn) [Example 511] | 0.015 µM | 0.175 µM |
| COCC1N(C(C)C)C(=O)c2c(O)c(=O)ccn2N1C1c2ccccc2CCc2ccccc21 (stereo not drawn) [Example 515] | 0.019 µM | 0.197 µM |
| CSCCC1N(C(C)C)C(=O)c2c(O)c(=O)ccn2N1C1c2ccccc2CCc2ccccc21 (stereo not drawn) [Example 516] | 0.017 µM | 0.039 µM |
| COC(OC)C1N(C(C)C)C(=O)c2c(O)c(=O)ccn2N1C1c2ccccc2CCc2ccccc21 (stereo not drawn) [Example 520] | 0.017 µM | 0.212 µM |
| CC(C)N1C(=O)c2c(O)c(=O)ccn2N(C2c3ccccc3CCc3ccccc32)C1CCC(F)(F)F (stereo not drawn) [Example 521] | 0.015 µM | 0.191 µM |
